Test results as given in patent US8273780B2, “Polycyclic antagonists of lysophosphatidic acid receptors” (Amira Pharmaceuticals, Inc., priority 2009, dated 2012).
pIC50: −log10 of the molar value.

Legend:
[1] = target: T1, Human LPA1 (Homo sapiens, UniProt Q92633); assay: LPA1 calcium flux assay; assay type: cell-based; settings: CHO cells expressing human LPA1, 10 nM LPA; read-out: HLPA1 Ca Flux IC50
T1 construct: the full-length cDNA for human LPA1 was obtained by PCR of the reverse transcription reaction; expressed in transfected cells
T1 sequence (Q92633 whole entry): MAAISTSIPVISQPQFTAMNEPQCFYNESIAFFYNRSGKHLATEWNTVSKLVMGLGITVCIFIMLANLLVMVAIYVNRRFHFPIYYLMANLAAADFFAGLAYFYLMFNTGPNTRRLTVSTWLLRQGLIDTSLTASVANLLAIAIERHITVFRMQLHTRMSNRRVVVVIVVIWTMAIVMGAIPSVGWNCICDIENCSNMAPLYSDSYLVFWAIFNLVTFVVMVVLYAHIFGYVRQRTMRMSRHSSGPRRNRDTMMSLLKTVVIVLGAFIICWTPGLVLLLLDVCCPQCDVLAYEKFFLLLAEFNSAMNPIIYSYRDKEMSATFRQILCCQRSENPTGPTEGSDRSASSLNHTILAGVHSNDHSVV
Procedure, shortened: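 CHO cells stably expressing cloned human LPA1, serum-starved overnight, loaded 1 h at 37 °C with Calcium 4 dye in HBSS/20 mM Hepes/0.3% fatty-acid-free HSA. Compounds preincubated 30 min at room temp, then stimulated with 10 nM LPA; intracellular Ca2+ measured and IC50 derived from titration curves.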

[2] = target: T2, Human LPA3 (Homo sapiens, UniProt Q9UBY5); assay: LPA3 calcium flux assay; assay type: cell-based; settings: CHO cells expressing human LPA3, 10 nM LPA; read-out: HLPA3 Ca Flux IC50
T2 construct: The full-length cDNA fragment for human LPA3 was obtained by PCR from the vector; expressed in transfected cells; cDNA from the Missouri S&T cDNA Resource Center
T2 sequence (Q9UBY5 1-353): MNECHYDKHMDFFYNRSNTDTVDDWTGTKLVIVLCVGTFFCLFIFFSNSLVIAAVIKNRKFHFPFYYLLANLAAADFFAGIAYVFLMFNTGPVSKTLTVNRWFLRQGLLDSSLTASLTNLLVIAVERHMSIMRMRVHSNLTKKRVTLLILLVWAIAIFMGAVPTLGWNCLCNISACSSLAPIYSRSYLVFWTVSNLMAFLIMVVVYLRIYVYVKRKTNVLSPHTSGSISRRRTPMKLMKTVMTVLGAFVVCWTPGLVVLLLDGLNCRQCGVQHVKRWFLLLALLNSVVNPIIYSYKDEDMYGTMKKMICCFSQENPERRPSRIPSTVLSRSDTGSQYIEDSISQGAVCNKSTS
Procedure, shortened: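 Stable hLPA3-CHO cells, serum-starved overnight, loaded with Calcium 4 dye in HBSS/20 mM HEPES/0.3% fatty-acid-free HSA for 1 h at 37° C. Compounds added for 30 min at room temperature, then cells stimulated with 10 nM LPA. Intracellular Ca^2+ measured; IC50 from titration curves.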

[3] = test system: human A2058 melanoma cells; assay: LPA1 chemotaxis assay; assay type: cell-based; settings: 100 nM LPA, read-out: inhibition of LPA-driven chemotaxis IC50
Procedure: Chemotaxis of the A2058 human melanoma cells was measured using the Neuroprobe ChemoTx® System plates (8 μM pore size, 5.7 mm diameter sites). The filter sites were coated with 0.001% fibronectin (Sigma) in 20 mM Hepes, pH 7.4 and allowed to dry. A2058 cells were serum-starved for 24 hours, then harvested with Cell Stripper and resuspended in DMEM containing 0.1% fatty-acid-free bovine serum albumin (BSA) to a concentration of 1×10^6/ml. Cells were mixed with an equal volume of test compound (2×) in DMEM containing 0.1% fatty-acid-free BSA and incubated at 37° C. for 15 minutes. LPA (100 nM in DMEM containing 0.1% fatty-acid-free BSA) or vehicle was added to each well of the lower chamber and 50 μl of the cell suspension/test compound mix was applied to the upper portion of the ChemoTx plate. Plates were incubated at 37° C. for three hours and then the cells removed from the upper portion by rinsing with PBS and scraping. The filter was dried then stained with HEMA 3 Staining System (Fisher Scientific). The absorbance of the filter was read at 590 nm and IC50s were determined using Symyx Assay Explorer.

[4] = test system: C57BL/6 mice; assay: Mouse unilateral ureteral obstruction kidney fibrosis model; assay type: in vivo; settings: compared to untreated group
Procedure: Female C57BL/6 mice (Harlan, 20-25 g) housed 4/cage will be given free access to food and water and allowed to acclimate for at least 7 days prior to test initiation. After the habituation phase, mice undergo unilateral ureteral obstruction (UUO) surgery or sham to left kidney. Briefly, a longitudinal, upper left incision is performed to expose the left kidney. The renal artery is located and 6/0 silk thread is passed between the artery and the ureter. The thread is looped around the ureter and knotted 3 times insuring full ligation of ureter. The kidney is returned to abdomen, the abdominal muscle is sutured and the skin is stapled closed. Mice are returned to their cages and monitored daily for the duration of the experiment. Test compound or vehicle is delivered po, ip or sc daily. The route and frequency of dosing is based on previously determined pharmacokinetic properties. All animals are sacrificed using inhaled isoflurane 4, 8 or 14 days after UUO surgery. Following sacrifice blood is drawn via cardiac puncture, the kidneys are harvested and one half of the kidney is frozen at −80° C. and the other half is fixed in 10% neutral buffered formalin for histological assessment of kidney fibrosis using light microscopy (10× magnification). Kidney tissue homogenates are analyzed for collagen levels using Sircol (Biocolor Ltd, UK). Fixed kidney tissue is also stained using hematoxylin and eosin (H&E) and trichrome and kidney fibrosis is determined by quantitative, computer-assisted densitometry of collagen in […] tissue sections using light microscopy and collagen content in kidney lysate. Plasma and kidney tissue lysates are also analyzed for concentrations of inflammatory, pro-fibrotic and tissue injury biomarkers including transforming growth factor β1, hyaluronic acid, tissue inhibitor of metalloproteinase-1, and plasminogen activator inhibitor-1, using commercially available ELISA. The resulting data are plotted using Graphpad prism and statistical differences between groups determined.

pIC50 [1]: > 6.52
pIC50 [2]: 5.00 to 6.00
pIC50 [3]: > 7.00
Structure (SMILES): Cc1noc(-c2ccc(-c3ccc(C4(C(=O)O)CC4)cc3)cc2)c1NC(=O)O[C@H](C)c1ccccc1 [Compound 1, 1-{4′-[3-Methyl-4-((R)-1-phenyl-ethoxycarbonylamino)-isoxazol-5-yl]-biphenyl-4-yl}-cyclopropanecarboxylic acid]
hyaluronic acid [4]: reduced
plasminogen activator inhibitor-1 [4]: reduced
tissue inhibitor of metalloproteinase-1 [4]: reduced
total kidney collogen [4]: reduced
transforming growth factor β1 [4]: reduced
collagen Type 1 ([4]; kidney): reduced
